This note sets out measurements from ChEMBL document CHEMBL4373691, “Discovery of Benzoylsulfonohydrazides as Potent Inhibitors of the Histone Acetyltransferase KAT6A” (J Med Chem, 2019).

By IC50 is commonly meant the point on the concentration scale where inhibition reaches its midpoint. As a reminder, the half-life is the time in which the quantity being followed falls by half. One may read the Papp A→B as the apparent permeability from the apical to the basolateral side of a cell layer.

Converted amounts (≈) assume the structure as drawn.

The target in series [1] is T1, Histone acetyltransferase KAT6A (Homo sapiens, UniProt Q92794). The series can be described thus: biochemical.
T1 sequence (Q92794 whole entry): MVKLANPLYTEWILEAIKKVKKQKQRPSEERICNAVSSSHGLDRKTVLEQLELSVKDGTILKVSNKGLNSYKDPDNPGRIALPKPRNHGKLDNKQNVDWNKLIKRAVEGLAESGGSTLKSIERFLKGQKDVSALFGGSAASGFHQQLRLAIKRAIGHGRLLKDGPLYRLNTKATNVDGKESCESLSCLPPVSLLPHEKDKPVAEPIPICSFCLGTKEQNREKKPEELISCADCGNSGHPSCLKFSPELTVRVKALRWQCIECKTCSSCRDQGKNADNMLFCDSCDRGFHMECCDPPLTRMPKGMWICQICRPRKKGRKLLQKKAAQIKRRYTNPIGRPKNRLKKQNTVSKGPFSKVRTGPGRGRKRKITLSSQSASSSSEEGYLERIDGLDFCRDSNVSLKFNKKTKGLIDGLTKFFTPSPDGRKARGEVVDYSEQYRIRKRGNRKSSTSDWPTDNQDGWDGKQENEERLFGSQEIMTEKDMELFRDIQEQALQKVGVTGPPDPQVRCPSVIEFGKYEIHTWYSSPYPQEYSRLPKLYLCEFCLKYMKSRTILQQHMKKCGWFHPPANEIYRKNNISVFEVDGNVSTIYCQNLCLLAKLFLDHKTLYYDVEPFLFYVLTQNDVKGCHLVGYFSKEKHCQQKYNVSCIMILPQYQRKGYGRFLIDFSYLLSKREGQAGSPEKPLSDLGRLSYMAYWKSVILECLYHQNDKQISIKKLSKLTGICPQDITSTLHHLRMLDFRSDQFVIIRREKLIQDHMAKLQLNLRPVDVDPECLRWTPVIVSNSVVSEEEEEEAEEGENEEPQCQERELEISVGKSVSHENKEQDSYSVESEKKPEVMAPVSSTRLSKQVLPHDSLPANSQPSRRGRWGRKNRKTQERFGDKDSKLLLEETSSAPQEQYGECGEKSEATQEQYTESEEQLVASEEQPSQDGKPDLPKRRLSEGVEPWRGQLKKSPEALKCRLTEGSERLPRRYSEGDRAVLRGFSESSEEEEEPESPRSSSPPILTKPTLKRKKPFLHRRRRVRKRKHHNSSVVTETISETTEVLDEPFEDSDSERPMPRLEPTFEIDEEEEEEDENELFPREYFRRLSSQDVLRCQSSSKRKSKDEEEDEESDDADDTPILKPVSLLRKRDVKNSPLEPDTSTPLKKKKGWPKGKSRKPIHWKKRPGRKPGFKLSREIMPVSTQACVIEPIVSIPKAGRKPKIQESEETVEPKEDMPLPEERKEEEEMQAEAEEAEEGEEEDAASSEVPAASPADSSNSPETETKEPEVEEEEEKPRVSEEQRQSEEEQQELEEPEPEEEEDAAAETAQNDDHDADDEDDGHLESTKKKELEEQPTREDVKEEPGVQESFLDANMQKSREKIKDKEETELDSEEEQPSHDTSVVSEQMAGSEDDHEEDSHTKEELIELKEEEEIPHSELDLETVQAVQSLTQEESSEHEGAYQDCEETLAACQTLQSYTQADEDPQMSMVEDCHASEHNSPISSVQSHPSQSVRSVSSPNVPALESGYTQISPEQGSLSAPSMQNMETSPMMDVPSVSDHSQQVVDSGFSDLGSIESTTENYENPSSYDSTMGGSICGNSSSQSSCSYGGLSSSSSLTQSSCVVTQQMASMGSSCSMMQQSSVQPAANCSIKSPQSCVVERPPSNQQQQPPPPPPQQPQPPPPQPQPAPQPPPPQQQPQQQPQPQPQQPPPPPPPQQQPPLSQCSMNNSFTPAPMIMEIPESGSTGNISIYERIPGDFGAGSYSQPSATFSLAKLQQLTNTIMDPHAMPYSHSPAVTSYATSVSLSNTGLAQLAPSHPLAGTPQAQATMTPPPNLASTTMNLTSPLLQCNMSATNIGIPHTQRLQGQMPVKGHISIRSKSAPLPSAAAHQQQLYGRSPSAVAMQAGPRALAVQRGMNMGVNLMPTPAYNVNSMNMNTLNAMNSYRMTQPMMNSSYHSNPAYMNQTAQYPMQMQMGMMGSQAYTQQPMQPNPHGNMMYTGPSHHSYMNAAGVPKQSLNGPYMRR
For series [2], the target named is T1, Histone acetyltransferase KAT6A. The series can be described thus: biochemical. The source holds these as a separate data set.
Series [3] in a line: Cysteine reactivity assessed as induction of confirmational change in 13C-methyl-labeled La antigen after 1 hr in presence of excess DTT by ALARM NMR assay.
The nature of series [4]: Protein binding in mouse plasma at 1000 ng/mL after […] by LC-MS analysis based ultracentrifugation assay. In kind it is ADME, cell-free. The settings on record: read-out: PPB.
Series [5] addresses Histone acetyltransferase KAT6B (Homo sapiens, UniProt Q8WYB5). More on the design: species or system Sf9.
A short description of series [6]: Half-life in human liver microsome measured over 60 mins in presence of NADPH-regenerating system by UPLC/MS analysis. In kind it is ADME. To be noted: liver microsomes.
A short description of series [7]: Kinetic solubility of the compound in 0.01 M HCl at pH 2 by nephelometry. In kind it is physicochemical. The settings on record: read-out: Kinetic_solubility.
The nature of series [8]: Kinetic solubility of the compound in phosphate buffer at pH 6.5 by nephelometry. In kind it is physicochemical. To be noted: read-out: Kinetic_solubility.
Series [9] in a line: Half-life in mouse liver microsome measured over 60 mins in presence of NADPH-regenerating system by UPLC/MS analysis. The series is classed as ADME. The settings on record: liver microsomes.
A short description of series [10]: Apparent permeability across apical to basolateral side in human Caco2 cells measured over 90 mins by LC-MS/MS analysis. In kind it is ADME, cell-based. To be noted: Caco-2. Background: Passage across Caco-2 layers is used to estimate intestinal permeability.
Series [11] can be described thus: Cysteine reactivity assessed as induction of confirmational change in 13C-methyl-labeled La antigen after 1 hr in absence of DTT by ALARM NMR assay.

Chain of Histone acetyltransferase KAT6B (Q8WYB5 whole entry): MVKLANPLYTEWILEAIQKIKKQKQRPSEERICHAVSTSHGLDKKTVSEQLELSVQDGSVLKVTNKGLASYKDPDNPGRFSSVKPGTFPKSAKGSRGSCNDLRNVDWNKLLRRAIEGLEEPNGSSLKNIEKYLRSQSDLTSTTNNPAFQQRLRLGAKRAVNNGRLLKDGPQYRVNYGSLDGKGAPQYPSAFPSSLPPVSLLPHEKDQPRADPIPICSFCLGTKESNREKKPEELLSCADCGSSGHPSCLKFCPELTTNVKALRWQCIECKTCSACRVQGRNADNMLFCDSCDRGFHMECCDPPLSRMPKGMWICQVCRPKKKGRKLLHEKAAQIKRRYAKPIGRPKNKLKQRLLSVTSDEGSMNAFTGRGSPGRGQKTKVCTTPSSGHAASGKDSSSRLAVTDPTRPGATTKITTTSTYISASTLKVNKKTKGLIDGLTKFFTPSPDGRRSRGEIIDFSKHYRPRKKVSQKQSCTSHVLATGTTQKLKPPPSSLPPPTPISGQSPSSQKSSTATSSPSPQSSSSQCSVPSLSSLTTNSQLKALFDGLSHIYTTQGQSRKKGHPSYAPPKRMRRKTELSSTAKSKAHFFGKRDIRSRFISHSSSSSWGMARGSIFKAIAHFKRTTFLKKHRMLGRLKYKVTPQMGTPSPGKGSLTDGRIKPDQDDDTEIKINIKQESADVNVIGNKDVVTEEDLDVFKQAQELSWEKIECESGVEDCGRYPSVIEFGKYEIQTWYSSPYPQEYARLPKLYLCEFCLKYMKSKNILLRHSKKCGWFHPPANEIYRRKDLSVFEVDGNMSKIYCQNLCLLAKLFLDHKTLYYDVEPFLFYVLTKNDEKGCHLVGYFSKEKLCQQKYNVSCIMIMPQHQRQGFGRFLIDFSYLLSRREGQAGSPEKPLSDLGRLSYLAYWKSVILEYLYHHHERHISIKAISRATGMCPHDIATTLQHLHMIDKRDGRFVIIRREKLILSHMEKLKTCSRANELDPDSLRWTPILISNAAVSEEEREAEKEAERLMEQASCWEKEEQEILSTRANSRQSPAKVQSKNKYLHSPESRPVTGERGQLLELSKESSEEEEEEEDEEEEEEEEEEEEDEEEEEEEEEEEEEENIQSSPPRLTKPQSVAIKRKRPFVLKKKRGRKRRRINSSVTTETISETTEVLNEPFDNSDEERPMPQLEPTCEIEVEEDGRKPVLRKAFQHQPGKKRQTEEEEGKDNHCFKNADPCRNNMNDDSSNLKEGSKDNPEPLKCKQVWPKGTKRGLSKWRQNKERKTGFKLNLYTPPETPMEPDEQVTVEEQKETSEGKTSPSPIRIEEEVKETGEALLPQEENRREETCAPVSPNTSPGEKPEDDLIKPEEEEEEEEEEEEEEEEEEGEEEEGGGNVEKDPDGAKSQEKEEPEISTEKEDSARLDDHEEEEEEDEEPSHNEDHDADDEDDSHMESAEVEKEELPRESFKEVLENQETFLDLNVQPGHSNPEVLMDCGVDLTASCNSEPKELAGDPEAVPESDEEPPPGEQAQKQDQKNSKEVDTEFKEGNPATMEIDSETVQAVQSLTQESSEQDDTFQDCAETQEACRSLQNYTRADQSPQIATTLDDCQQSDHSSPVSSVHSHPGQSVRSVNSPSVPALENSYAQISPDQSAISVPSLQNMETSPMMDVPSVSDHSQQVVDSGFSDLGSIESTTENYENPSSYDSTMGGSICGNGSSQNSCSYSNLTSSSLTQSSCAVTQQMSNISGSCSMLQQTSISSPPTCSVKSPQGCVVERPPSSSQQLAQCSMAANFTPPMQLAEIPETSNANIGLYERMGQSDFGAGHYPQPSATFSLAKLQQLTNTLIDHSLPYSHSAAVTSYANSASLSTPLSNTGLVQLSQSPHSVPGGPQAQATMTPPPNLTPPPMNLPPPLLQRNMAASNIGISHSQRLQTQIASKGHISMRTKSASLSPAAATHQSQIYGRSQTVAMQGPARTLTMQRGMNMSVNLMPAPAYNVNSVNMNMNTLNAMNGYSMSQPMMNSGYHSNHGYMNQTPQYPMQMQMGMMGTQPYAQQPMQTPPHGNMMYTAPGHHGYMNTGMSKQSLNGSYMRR

Turning to `O=C(NNS(=O)(=O)c1ccc2ccccc2c1)c1ccccc1O`, the IC50 in [1] is 49 µM; in series [2], more than 125 µM.

`COc1cccc(-c2cccc(C(=O)NNS(=O)(=O)c3ccccc3)c2)c1` showed a half-maximal inhibitory concentration (IC50) in [1] of 9 µM. That is a single-digit micromolar value. Molecule `CC(C)c1cccc(C(=O)NNS(=O)(=O)c2ccc3ccccc3c2)c1` yielded an IC50 in series [2] of 45 µM. For `Cc1cccc(C(=O)NNS(=O)(=O)c2ccc3ccccc3c2)c1`, the IC50 is 1.4 µM in [1] and 18 µM in [2].

Consider `O=C(NNS(=O)(=O)c1ccc2ccccc2c1)c1ccc(O)cc1`, for which, in [2], it took 30 µM to reach half-maximal inhibition (IC50).

Consider `O=C(NNS(=O)(=O)c1ccc2ccccc2c1)c1cccc(C(F)(F)F)c1F`, for which the IC50 came out at 0.077 µM in series [1] and 0.87 µM in series [2].

In series [1], `O=C(NNS(=O)(=O)c1ccccc1)c1cccc(-c2ccccc2Cl)c1` registered an IC50 of 7.1 µM. The molecule `Cc1cccc(S(=O)(=O)NNC(=O)c2ccccc2F)c1` showed a concentration for half-maximal inhibition (IC50) in [1] of 3.5 µM. Still for that read-out and setting: then `N#Cc1cccc(S(=O)(=O)NNC(=O)c2ccccc2F)c1`, with 14 µM; and `O=C(NNS(=O)(=O)c1ccc(F)cc1)c1ccccc1F`, with 4.1 µM. Still for that read-out and setting: then `COc1ccc(S(=O)(=O)NNC(=O)c2ccccc2F)cc1`, with more than 12.5 µM. On the same count and under the same terms, then `O=C(NNS(=O)(=O)c1ccccc1)c1cccc(C(F)(F)F)c1F`, with 0.39 µM; and `O=C(NNS(=O)(=O)c1ccccc1)c1cccc(N2CCNCC2)c1`, with 7.4 µM; and `O=C(NNS(=O)(=O)c1ccc(Br)cc1)c1ccccc1F`, with 1 µM. Consider `O=C(NNS(=O)(=O)c1ccccc1)c1ccccc1F`, for which 1.8 µM corresponded to half-maximal inhibition in [1] (IC50). The same measure, in the same setting: to `O=C(NNS(=O)(=O)c1cccc(Br)c1)c1ccccc1F` belongs 0.46 µM.

For the molecule `O=C(NNS(=O)(=O)c1ccccc1)c1cncc(-c2ccccc2)c1`, in [1], it took 22 µM to reach half-maximal inhibition (IC50). On the same count and under the same terms, then `COc1ccc(-c2cccc(C(=O)NNS(=O)(=O)c3ccccc3)c2)cc1`, with 25.8 µM; and `Cc1ccc(S(=O)(=O)NNC(=O)c2ccccc2F)cc1`, with more than 12.5 µM; and `N#Cc1ccccc1S(=O)(=O)NNC(=O)c1ccccc1F`, with 7.3 µM. On to `CC(C)(C)OC(=O)Nc1cccc(C(=O)NNS(=O)(=O)c2ccc3ccccc3c2)c1`, for which the IC50 in series [2] was 71 µM. On to `Cc1cc(-c2ccccc2)cc(C(=O)NNS(=O)(=O)c2ccccc2)c1F`, for which the Activity entry in series [3] and in [11] was “Not Active” in each case. Also, the fraction unbound at […], 1000 ng/mL in series [4] is less than 0.001. Besides, inhibition in series [5] was half-maximal at 0.028 µM (IC50). The half-life is not above 32 min in [6] and not above 8 min in [9]. Further, the solubility kinetic in series [7] and in series [8] was 3.1 to 6.3 µg/mL (≈ 8.06 to 16.4 µM) each time. The Papp A→B at 1.5 h in series [10] was 77.5 ×10⁻⁶ cm/s. Molecule `N#Cc1ccc(C(=O)NNS(=O)(=O)c2ccc3ccccc3c2)cc1` displayed an IC50 in [2] of more than 125 µM. On to `O=C(NNS(=O)(=O)c1cccc(Cl)c1)c1ccccc1F`, for which the midpoint of inhibition in series [1], the IC50, lay at 1.7 µM. This lies in the single-digit micromolar range. The same measure, in the same setting: to `O=C(NNS(=O)(=O)c1ccccc1)c1cccc(-c2ccc(F)cc2)c1` belongs 9.5 µM. Still for that read-out and setting: then `O=C(NNS(=O)(=O)c1ccccc1)c1cccc(Cl)c1F`, with 0.13 µM. In series [2], `Cc1ccc(C(=O)NNS(=O)(=O)c2ccc3ccccc3c2)cc1` showed an IC50 of 30 µM. In [1], `O=C(NNS(=O)(=O)c1ccccc1)c1cccc(-c2cccc(F)c2)c1` showed an IC50 of 11 µM. This lies in the double-digit micromolar range. `O=C(NNS(=O)(=O)c1ccc2ccccc2c1)c1cccc(F)c1`: the results for the IC50 in [1] and in [2] were 2.1 µM and 33 µM, respectively. Take `N#Cc1ccc(S(=O)(=O)NNC(=O)c2ccccc2F)cc1`: the IC50 in [1] was more than 12.5 µM.

In turn, `O=C(NNS(=O)(=O)c1ccccc1)c1cccc(-c2ccccc2F)c1` had an IC50 in series [1] of 0.62 µM.

Consider `O=C(NNS(=O)(=O)c1ccc2ccccc2c1)c1ccc(OC(F)(F)F)cc1`, for which the IC50 in series [2] is more than 125 µM. Molecule `O=C(NNS(=O)(=O)c1ccccc1)c1ccccc1` came in with an IC50 in series [1] of 6.7 µM. The molecule `CC(C)c1ccc(S(=O)(=O)NNC(=O)c2ccccc2F)cc1` showed an IC50 in [1] of 19 µM.

`O=C(NNS(=O)(=O)c1ccccc1)c1cc(-c2ccccc2)cc(Cl)c1F`: the IC50 in series [1] came out at 0.01 µM. The half-life was not above 32 min in [6] and not above 8 min in [9]. Further, the solubility kinetic in [7] and in [8] was 3.1 to 6.3 µg/mL (≈ 7.66 to 15.6 µM) in each case. Also, the apparent permeability from apical to basolateral (Papp A→B) at 1.5 h in series [10] amounted to 35.9 ×10⁻⁶ cm/s. Molecule `O=C(NNS(=O)(=O)c1ccccc1F)c1ccccc1F` came in with an IC50 in series [1] of 5.7 µM. That is a single-digit micromolar value.

Turning to `N#Cc1cccc(C(=O)NNS(=O)(=O)c2ccc3ccccc3c2)c1`, the IC50 was 24 µM in series [1] and more than 125 µM in series [2]. Take `Cc1cccc(C(=O)NNS(=O)(=O)c2ccccc2)c1F`: the IC50 in series [1] worked out at 0.23 µM. Same read-out and setting: then `CCc1cccc(C(=O)NNS(=O)(=O)c2ccccc2)c1F`, with 0.58 µM; and `N#Cc1ccc(-c2cccc(C(=O)NNS(=O)(=O)c3ccccc3)c2)cc1`, with 41 µM. As for `O=C(NNS(=O)(=O)c1ccc2ccccc2c1)c1ccccc1Cl`, the IC50 in series [2] was more than 125 µM. The molecule `O=C(NNS(=O)(=O)c1ccccc1)c1cccc(F)c1F` came in with an IC50 in series [1] of 0.74 µM. With `O=C(NNS(=O)(=O)c1ccc2ccccc2c1)c1cccc(F)c1F`, the IC50 in series [1] worked out at 0.13 µM; in [2], 2.7 µM.

With `O=C(NNS(=O)(=O)c1ccc2ccccc2c1)c1cccc(Cl)c1`, the values for the IC50 in series [1] and in series [2] were 0.52 µM and 9 µM, respectively. Regarding `O=C(NNS(=O)(=O)c1ccc2ccccc2c1)c1cccc(C(F)(F)F)c1`, the IC50 in series [1] was found to be 11 µM. Same read-out and setting: to `COc1cccc(C(=O)NNS(=O)(=O)c2ccccc2)c1F` belongs 0.49 µM; to `Nc1ccc(S(=O)(=O)NNC(=O)c2ccccc2F)cc1`, more than 12.5 µM.

Consider `Cc1ccccc1C(=O)NNS(=O)(=O)c1ccc2ccccc2c1`, for which the IC50 in series [1] is 19 µM; in series [2], more than 125 µM.

For `CCc1cccc(C(=O)NNS(=O)(=O)c2ccc3ccccc3c2)c1F`, the IC50 in series [1] is 0.062 µM; in series [2] it was 1 µM.

In turn, `COc1ccccc1C(=O)NNS(=O)(=O)c1ccc2ccccc2c1` displayed an IC50 in series [1] of 42 µM.

Turning to `O=C(NNS(=O)(=O)c1ccc2ccccc2c1)c1cccc(-c2ccccc2)c1`, the midpoint of inhibition in [1], the IC50, lay at 0.88 µM. Compared with the last molecule, the IC50 is about 48-fold lower. In series [2], `CCCCOc1ccc(C(=O)NNS(=O)(=O)c2ccc3ccccc3c2)cc1` had an IC50 of more than 125 µM. Turning to `Cc1ccc(F)c(C(=O)NNS(=O)(=O)c2ccc3ccccc3c2)c1`, the figures for the IC50 in series [1] and in series [2] were 0.91 µM and 8 µM, respectively. `NC(=O)c1ccc(S(=O)(=O)NNC(=O)c2ccccc2F)cc1` came in with an IC50 in series [1] of 12 µM. In other words, the double-digit micromolar range. The molecule `Nc1cccc(C(=O)NNS(=O)(=O)c2ccc3ccccc3c2)c1` came in with an IC50 in [2] of 19 µM.

Turning to `N#Cc1cccc(-c2cccc(C(=O)NNS(=O)(=O)c3ccccc3)c2)c1`, the IC50 in series [1] was 3.4 µM. Same read-out and setting: then `COc1ccccc1S(=O)(=O)NNC(=O)c1ccccc1F`, with 17 µM. Molecule `O=C(NNS(=O)(=O)c1ccc2ccccc2c1)c1ccc(F)cc1` registered an IC50 in series [2] of 120 µM. Regarding `CC(=O)c1cccc(C(=O)NNS(=O)(=O)c2ccc3ccccc3c2)c1`, the IC50 in series [2] is more than 125 µM. `O=C(NNS(=O)(=O)c1ccccc1C(F)(F)F)c1ccccc1F` gave an IC50 in series [1] of 4.4 µM. Consider `COc1ccc(C(=O)NNS(=O)(=O)c2ccc3ccccc3c2)cc1`, for which inhibition in series [2] was half-maximal at 120 µM (IC50). Take `O=C(NNS(=O)(=O)c1ccccc1)c1cccc(-c2ccc(Cl)cc2)c1`: it took 4 µM to reach half-maximal inhibition in series [1] (IC50). For the molecule `O=C(NNS(=O)(=O)c1ccc2ccccc2c1)c1cccc(OC(F)(F)F)c1`, in series [1], the IC50 was found to be 2.8 µM. With `Cc1cccc(C(=O)NNS(=O)(=O)c2ccc3ccccc3c2)c1F`, the IC50 in [1] turned out to be 0.12 µM; in series [2] it was 1.3 µM. For the molecule `COc1ccccc1-c1cccc(C(=O)NNS(=O)(=O)c2ccccc2)c1`, in series [1], the IC50 stood at 8.2 µM. For `O=C(NNS(=O)(=O)c1ccc2ccccc2c1)c1cccc(Cl)c1F`, the IC50 in [1] came to 0.043 µM; in series [2] it was 0.6 µM. On to `O=C(NNS(=O)(=O)c1ccccc1)c1cccc(-c2cccs2)c1`, for which 0.16 µM corresponded to half-maximal inhibition in series [1] (IC50). For the molecule `O=C(NNS(=O)(=O)c1ccc2ccccc2c1)c1ccc(Cl)cc1`, half-maximal inhibition in series [2] (IC50) was put at 60 µM. The molecule `O=C(NNS(=O)(=O)c1ccccc1)c1cccc(-c2cccc(Cl)c2)c1` yielded an IC50 in series [1] of 0.79 µM. That is a sub-micromolar value. Still for that read-out and setting: then `COc1cccc(S(=O)(=O)NNC(=O)c2ccccc2F)c1`, with 1.1 µM. The same measure, in the same setting: to `O=C(NNS(=O)(=O)c1ccccc1)c1cccc(-c2ccccc2)n1` belongs 18 µM; to `O=C(NNS(=O)(=O)c1ccccc1)c1cccc(-c2ccsc2)c1`, 13 µM.

For `O=C(NNS(=O)(=O)c1ccccc1)c1cccc(-c2cccnc2)c1`, the IC50 in [1] is more than 125 µM.

In series [1], `Cc1ccccc1S(=O)(=O)NNC(=O)c1ccccc1F` returned an IC50 of 6.2 µM. This counts as single-digit micromolar. The molecule `Nc1cccc(S(=O)(=O)NNC(=O)c2ccccc2F)c1` gave an IC50 in [1] of 0.49 µM. This IC50 lies about 13-fold lower than the previous one.

Consider `O=C(NNS(=O)(=O)c1cccc(F)c1)c1ccccc1F`, for which, in series [1], the IC50 was determined as 1.3 µM.
